# Data from patent US12459951B2, “Compounds that interact with RAS superfamily proteins for treatment of cancers, inflammatory diseases, rasopathies, and fibrotic disease” (SHY Therapeutics, LLC, priority 2022, dated 2025).
# Tests used:
# [1] = system: JNK phosphorylation; test: JNK Activation Assay (western blot), Panc-1; format: cell-based, human; conditions: at 10 μM, Panc-1 pancreatic cancer cell line; starred symbols = activation
# In short: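 KRas G12C Panc-1 cells treated 6 h at 37 °C with compound at 10 μM (0.3% DMSO), or serial dilutions for IC50. In Method 1 cells were serum-starved overnight (0.5% FBS) then stimulated with 1.5 ng/ml EGF for 15 min; Method 2 used 10% FBS without stimulation. Phospho-JNK (Thr183/Tyr185) measured by western blot.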
# [2] = system: KRas G12C mutant; test: Ras GTP Binding Domain Inhibition Assay (Ras Superfamily Assay); conditions: 20 μM compound; for KRas G12C mutant + SOS: % inh.: with SOS; for KRas G12C mutant: % inh.: without SOS
# In short: (§1)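 Ni-plate capture of His-tagged protein (10-30 μg/mL, o/n 4° C); cpd 20 μM or dilution series, 1% DMSO, 3 h RT ± Sos 556-1049 last h; 100 nM Cy-labelled GTP 45 min RT; 3× wash; fluorescence read.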
# [3] = system: KRas Q61H mutant; test: as above; conditions: 20 μM compound; for KRas Q61H mutant + SOS: % inh.: with SOS; for KRas Q61H mutant: % inh.: without SOS
# In short: as §1
# [4] = biological target: T1, Rho-A (Homo sapiens, UniProt P61586); test: as above; conditions: read-out: Rho-A: % inh..
# T1 construct: made in house
# In short: as §1
# T1 sequence (P61586 whole entry): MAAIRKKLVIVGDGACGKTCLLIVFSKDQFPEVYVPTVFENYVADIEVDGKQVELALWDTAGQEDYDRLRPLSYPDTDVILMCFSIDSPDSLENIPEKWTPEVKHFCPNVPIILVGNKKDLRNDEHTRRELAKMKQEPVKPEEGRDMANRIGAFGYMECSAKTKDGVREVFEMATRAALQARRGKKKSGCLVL
Structure (SMILES),% inh of JNK in Panc-1 [1],KRas G12C mutant + SOS: % inh. [2],KRas G12C mutant: % inh. [2],KRas Q61H mutant + SOS: % inh. [3],KRas Q61H mutant: % inh. [3],inhibition at 20 µM [4]
"COC1CCCN(c2nc(-c3nccn3C)nn3cc(-c4ccn(C(C)C)n4)c(-c4ccccc4)c23)C1 (racemic) [Compound 21, rac 6-(1-Isopropyl-1H-pyrazol-3-yl)-4-(3-methoxypiperidin-1-yl)-2-(1-methyl-1H-imidazol-2-yl)-5-phenylpyrrolo[2,1-f][1,2,4]triazine]",H* (H* ≥ 100% activation),0 (0 = 0% inhibition),0 (0 = 0% inhibition),A (A = 1-25% inhibition),0 (0 = 0% inhibition),1 to 25%
"CO[C@H]1CC[C@@H](Nc2nc(-c3nccn3C)nn3cc(-c4ccn(C(C)C)n4)c(C)c23)C1 (racemic) [Compound 1, rac 6-(1-Isopropyl-1H-pyrazol-3-yl)-N-((1R,3S)-3-methoxycyclopentyl)-5-methyl-2-(1-methyl-1H-imidazol-2-yl)pyrrolo[2,1-f][1,2,4]triazin-4-amine]",F* (F* = 31-74% activation),0 (0 = 0% inhibition),0 (0 = 0% inhibition),0 (0 = 0% inhibition),0 (0 = 0% inhibition),0%
"Cn1ccnc1-c1nc(O)c2c(-c3ccccc3)ccn2n1 [Compound 39, 2-(1-Methyl-1H-imidazol-2-yl)-5-phenylpyrrolo[2,1-f][1,2,4]triazin-4-ol]",–,A (A = 1-25% inhibition),B (B = 26-49% inhibition),0 (0 = 0% inhibition),A (A = 1-25% inhibition),0%
"COCCO[C@H]1C[C@H](Nc2nc(-c3nccn3C)nn3cc(-c4ccn(C(C)C)n4)c(C)c23)C1 [Compound 92, 6-(1-Isopropyl-1H-pyrazol-3-yl)-N-((1r,3r)-3-(2-methoxyethoxy)cyclobutyl)-5-methyl-2-(1-methyl-1H-imidazol-2-yl)pyrrolo[2,1-f][1,2,4]triazin-4-amine]",–,0 (0 = 0% inhibition),0 (0 = 0% inhibition),A (A = 1-25% inhibition),0 (0 = 0% inhibition),1 to 25%
"COCCNc1nc(-c2nccn2C)nn2cc(-c3ccn(C(C)C)n3)c(C)c12 [Compound 5, 6-(1-Isopropyl-1H-pyrazol-3-yl)-N-(2-methoxyethyl)-5-methyl-2-(1-methyl-1H-imidazol-2-yl)pyrrolo[2,1-f][1,2,4]triazin-4-amine]",–,–,–,–,–,26 to 49%
"Cc1c(-c2ccn(C(C)C)n2)cn2nc(-c3nccn3C)nc(Nc3noc(C4CC4)n3)c12 [Compound 75, 5-Cyclopropyl-N-(6-(1-isopropyl-1H-pyrazol-3-yl)-5-methyl-2-(1-methyl-1H-imidazol-2-yl)pyrrolo[2,1-f][1,2,4]triazin-4-yl)-1,2,4-oxadiazol-3-amine]",–,A (A = 1-25% inhibition),A (A = 1-25% inhibition),B (B = 26-49% inhibition),A (A = 1-25% inhibition),50 to 75%
"Cc1ccn2nc(-c3nccn3C)nc(N)c12.O=C(O)C(F)(F)F [Compound 37, 5-Methyl-2-(1-methyl-1H-imidazol-2-yl)pyrrolo[2,1-f][1,2,4]triazin-4-amine trifluoroacetic acid salt]",–,C (C = 50-75% inhibition),C (C = 50-75% inhibition),0 (0 = 0% inhibition),0 (0 = 0% inhibition),0%
